Measurements from patent US12187662B2, “FOXM1 inhibitor compositions and methods of using the same” (The Board of Trustees of the University of Illinois, priority 2018, dated 2025).

How the values were obtained:
[1] = tested on: FOXM1 target genes in DT22 cells; assay: FOXM1 target gene expression by qRT-PCR, DT22; format: cell-based, human; details: DT22, 24 h, at IC50 concentration
Source text: RNA was extracted from cells and expression of different genes was monitored by qRT-PCR. Assays were run in triplicate. Values are mean±SEM. *, p<0.05; **, p<0.01; ***, p<0.001. RNA isolation and real-time PCR Total RNA was isolated using TRIzol (Invitrogen) and reverse transcribed using […] reverse transcriptase (New England BioLabs). […] Relative mRNA levels of genes were normalized to the housekeeping gene 36B4, and fold change calculated relative to the vehicle treated samples. Results are the average±SD from at least two independent experiments carried out in triplicate. Primer sequences for the genes studied were obtained from the Harvard Primer Bank. Sequences are available on their website.

[2] = tested on: tamoxifen-resistant MCF7 breast cancer cells; assay: Proliferation of tamoxifen-resistant MCF7 cells; format: cell-based, human; details: 6 days
Procedure: Values are mean±SD of three separate assays. Cell proliferation assay WST-1 assay (Roche, Basel, Switzerland) was used to quantify cell viability as described (Gong et al., Mol. Cell Endocrinol., 2016, 437:190-200). Absorbance was measured at 450 nm using a VICTOR X5 PerkinElmer 2030 Multilabel Plate Reader. All assays were performed in triplicate.

[3] = Pharmacokinetic studies in mice after single s.c. or oral dose
Procedure: For s.c. injection, each compound was dissolved in DMSO and then mixed with corn oil for a total injection volume of 100 μL (10% DSMO+90% corn oil) per mouse. For oral gavage, compounds were administered in a 200 μL formulation of 9/0.5/0.5/90 parts of PEG400/Tween80/Povidone/0.5% Carboxymethylcellulose. […] Compounds were quantified by LC-MS/MS at the University of Illinois Metabolomics Core Facility. The data were fitted to a non-compartment model.

[4] = tested on: FOXM1 cistrome genes in MDA-MB-231 cells; assay: RNA-Seq Gene Set Enrichment Analysis, MDA-MB-231; format: cell-based, human; details: NB-73 […] 24 h, siFOXM1 25 nM 72 h
Procedure: RNA-Seq transcriptional profiling and gene ontology analysis For gene expression analysis, total RNA was extracted from cells using Trizol reagent and further cleaned using the Turbo DNase and RNAqueous kits (ThermoFisher). Cells were treated with Veh (0.1% EtOH), or with the compounds indicated for 9 h or 24 h. Once the sample quality and replicate reproducibility were verified, samples from each group were subjected to sequencing. RNA at a concentration of 100 ng/μL in nuclease-free water was used for library construction. cDNA libraries were prepared with the mRNA-TruSeq Kit (Illumina, Inc.). In brief, the poly-A containing mRNA was purified from total RNA, the RNA was fragmented, double-stranded cDNA was generated from fragmented RNA, and adapters were ligated to the ends.
The paired-end read data from the HiSeq 4000 were processed and analyzed through a series of steps. […] Reads were trimmed of adapters and low expression data using Trimmomatic version 0.38. The star alignment tool version 2.5.3a was used to align the sequenced reads to the GRCh37 human genome from Ensembl. Gene counts were calculated using subread version 1.5.2. […]
Gene Set Enrichment Analysis (GSEA) was used for examination of the genome-wide expression profiles. Overrepresented GO biological processes were determined by the web-based DAVID Bioinformatics Resources database.

[5] = tested on: FOXM1 target genes in MCF7 cells; assay: FOXM1 target gene expression by qRT-PCR, MCF7; format: cell-based, human; details: MCF7, 24 h, at IC50 concentration
Procedure: RNA was extracted from cells and expression of different genes was monitored by qRT-PCR. Assays were run in triplicate. Values are mean±SEM. *, p<0.05; **, p<0.01; ***, p<0.001. RNA isolation and real-time PCR Total RNA was isolated using TRIzol (Invitrogen) and reverse transcribed using […] reverse transcriptase (New England BioLabs). Real-time PCR was performed using SYBRgreen PCR Master Mix (Roche) as described (Bergamaschi et al., Breast Cancer Res., 2014, 16:436). Relative mRNA levels of genes were normalized to the housekeeping gene 36B4, and fold change calculated relative to the vehicle treated samples. Results are the average±SD from at least two independent experiments carried out in triplicate. Primer sequences for the genes studied were obtained from the Harvard Primer Bank. Sequences are available on their website.

[6] = tested on: DT22 triple negative human breast tumor xenografts; assay: DT22 triple negative breast tumor xenografts in NSG mice; format: in vivo, mouse; details: for Expression of FOXM1-regulated genes in tumors: q-PCR at end of treatment
Procedure: In vivo breast cancer xenograft studies For examination of the growth of triple-negative DT22 breast tumors, intact female NOD/SCID-gamma (NSG) mice were used. DT-22 cells (1×10^6 cells/mouse) were injected s.c. into the right axial mammary gland. Mice received s.c. injection or oral gavage daily or every second or third day, as indicated, with vehicle or FOXM1 inhibitor compound, and tumor growth was monitored over time.

For `C[N+]1(CCCCCCOc2ccc(C(c3ccc(OCCCCCC[N+]4(C)CCCCCC4)cc3)=C3C4C[C@H]5C[C@@H](C4)C[C@H]3C5)cc2)CCCCCC1` [NB-73, 1,1′-((((((5r,7r)-adamantan-2-ylidene)methylene)bis(4,1-phenylene))bis(oxy))bis(hexane-6,1-diyl))bis(1-methylazepan-1-ium) diiodide], the “Expression of ATF3 (gene suppressed by FOXM1)” value [1] was “increased”, the “Expression of FOXM1 stimulated target genes (FOXM1C, AURKB, CCNB1, PLK1)” value [1] was “significantly reduced” and the “Effect on proliferation of tamoxifen-resistant MCF7 cells” value [2] was “effectively suppressed”. The half-life ([3]; female, CD-1, mouse, plasma, sc) was 1.04 to 1.67 days, the half-life ([3]; female, CD-1, mouse, plasma, sc, 60 mg/kg) was 7.08 days and the AUC(0-t) ([3]; female, CD-1, mouse, plasma, sc, 60 mg/kg, PK s.c. AUC0-48, mice, 60 mg/kg s.c.) was 190 µM·h. For the same molecule, the “PK p.o. AUC0-48” value ([3]; mice, 60 mg/kg p.o.) was “too low to measure”, the “Blood levels after oral administration” value ([3]; mice, oral, doses of FIGS. 6A-6B) was “very low levels” and the “Blood levels after s.c. injection” value ([3]; mice, s.c., doses of FIGS. 6A-6B) was “very high blood levels”. For the same molecule, the “GSEA enrichment against FOXM1 target gene sets” value [4] was “negative enrichment scores”, the “Expression of ATF3 (gene suppressed by FOXM1)” value [5] was “increased” and the “Expression of FOXM1 stimulated target genes (FOXM1C, AURKB, CCNB1, PLK1)” value [5] was “significantly reduced”. For the same molecule, the “Growth of DT22 tumor xenografts” value ([6]; 5 mg/kg s.c. daily, every other day from day 21) was “reduced tumor growth”, the “Expression of FOXM1-regulated genes in tumors” value ([6]; 5 mg/kg s.c.) was “significant reduction” and the “Growth of DT22 tumor xenografts” value ([6]; 10 mg/kg s.c. daily, every other day from day 21) was “even more markedly suppressed growth”. The “Expression of FOXM1-regulated genes in tumors” value ([6]; 10 mg/kg s.c.) was “greatly reduced”, the “Tumor growth in vivo, low doses” value ([6]; 5 or 10 mg/kg s.c. every second or third day) was “greatly suppress tumor growth” and the “Growth of DT22 tumor xenografts” value ([6]; s.c., 20 mg/kg every other day for first 10 days then 10 mg/kg every other day) was “greatly suppress tumor growth”.
